Experiments:
[1] = molecular target: T1, TBK1 (Homo sapiens, UniProt Q9UHD2); assay: TBK1 inhibition, ADP-Glo Kinase Assay; format: biochemical; conditions: luminometer
T1 construct: purchased Promega V3991
T1 sequence (Q9UHD2 1-729): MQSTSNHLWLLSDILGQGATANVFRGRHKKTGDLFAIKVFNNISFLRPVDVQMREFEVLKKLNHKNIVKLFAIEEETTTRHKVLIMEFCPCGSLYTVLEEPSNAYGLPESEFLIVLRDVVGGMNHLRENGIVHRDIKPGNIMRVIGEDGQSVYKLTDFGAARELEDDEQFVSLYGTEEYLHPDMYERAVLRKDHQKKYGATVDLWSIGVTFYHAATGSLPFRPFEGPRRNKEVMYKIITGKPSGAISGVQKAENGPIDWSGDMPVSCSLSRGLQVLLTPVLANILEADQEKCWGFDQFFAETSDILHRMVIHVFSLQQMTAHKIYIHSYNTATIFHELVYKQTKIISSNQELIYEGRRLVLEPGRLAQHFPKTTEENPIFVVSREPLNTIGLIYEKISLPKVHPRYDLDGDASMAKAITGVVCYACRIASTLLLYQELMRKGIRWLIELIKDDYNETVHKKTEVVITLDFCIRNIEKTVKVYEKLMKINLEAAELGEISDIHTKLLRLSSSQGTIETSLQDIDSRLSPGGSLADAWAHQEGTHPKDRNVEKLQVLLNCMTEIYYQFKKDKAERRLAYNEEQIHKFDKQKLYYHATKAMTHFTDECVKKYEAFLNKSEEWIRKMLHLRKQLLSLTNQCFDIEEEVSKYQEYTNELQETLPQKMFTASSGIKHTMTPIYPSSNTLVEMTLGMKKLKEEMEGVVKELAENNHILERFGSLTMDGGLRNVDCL
Outline: (§1)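 Each recombinant kinase enzyme system was run per the manufacturer's protocol in 40 mM Tris pH 7.5, 20 mM MgCl2 and 0.1 mg/mL BSA. Kinase activity was detected as ADP formation by ADP-Glo luminescence.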

[2] = molecular target: T2, IKKε (Homo sapiens, UniProt Q14164); assay: IKKε inhibition, ADP-Glo Kinase Assay; format: biochemical; conditions: luminometer
T2 construct: purchased Invitrogen PR8031B
T2 sequence (Q14164 1-716): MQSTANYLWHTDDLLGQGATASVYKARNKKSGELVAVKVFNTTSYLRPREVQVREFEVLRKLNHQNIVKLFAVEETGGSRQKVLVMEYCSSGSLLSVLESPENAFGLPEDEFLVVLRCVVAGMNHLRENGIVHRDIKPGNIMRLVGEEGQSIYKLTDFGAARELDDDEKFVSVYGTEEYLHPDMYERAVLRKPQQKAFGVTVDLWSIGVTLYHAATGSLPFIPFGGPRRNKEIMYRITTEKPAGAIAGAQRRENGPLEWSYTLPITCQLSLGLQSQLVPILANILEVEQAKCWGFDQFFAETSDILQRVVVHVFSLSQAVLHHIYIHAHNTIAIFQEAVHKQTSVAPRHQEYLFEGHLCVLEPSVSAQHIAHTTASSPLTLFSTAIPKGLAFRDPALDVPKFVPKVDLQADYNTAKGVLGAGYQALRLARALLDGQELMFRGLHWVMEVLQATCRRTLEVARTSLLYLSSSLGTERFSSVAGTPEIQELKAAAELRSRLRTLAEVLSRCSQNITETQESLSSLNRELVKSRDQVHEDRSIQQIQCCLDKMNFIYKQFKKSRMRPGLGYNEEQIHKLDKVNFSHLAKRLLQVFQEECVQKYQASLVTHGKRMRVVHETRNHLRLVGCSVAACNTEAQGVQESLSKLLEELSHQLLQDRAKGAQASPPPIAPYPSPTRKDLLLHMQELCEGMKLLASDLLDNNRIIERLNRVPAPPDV
Outline: as §1

SMILES	IC50 [1]	IC50 [2]
CN1CCN(c2ccc(C(=O)Nc3n[nH]c4ccc(C(=O)NCc5ccc(F)cc5)cc34)cc2)CC1 [Example 189, N-(4-Fluorobenzyl)-3-(4-(4-methylpiperazin-1-yl)benzamido)-1H-indazole-5-carboxamide]	0.019 µM	0.13 µM
CC[C@H](NC(=O)c1ccc2[nH]nc(NC(=O)c3ccc(N4CCN(C)CC4)cc3)c2c1)c1ccccc1 [Example 190, (S)-3-(4-(4-Methylpiperazin-1-yl)benzamido)-N-(1-phenylpropyl)-1H-indazole-5-carboxamide]	0.34 µM	1.23 µM
CCC[C@H](NC(=O)c1ccc2[nH]nc(NC(=O)c3ccc(N4CCN(C)CC4)cc3)c2c1)c1ccccc1 [Example 193, (S)-3-(4-(4-Methylpiperazin-1-yl)benzamido)-N-(1-phenylbutyl)-1H-indazole-5-carboxamide]	0.8 µM	4.47 µM
CCC[C@@H](NC(=O)c1ccc2[nH]nc(NC(=O)c3ccc(N4CCN(C)CC4)cc3)c2c1)c1ccccc1 [Example 194, (R)-3-(4-(4-Methylpiperazin-1-yl)benzamido)-N-(1-phenylbutyl)-1H-indazole-5-carboxamide]	0.0075 µM	0.038 µM
CN1CCN(c2ccc(C(=O)Nc3n[nH]c4ccc(C(=O)NCc5cccc(F)c5)cc34)cc2)CC1 [Example 195, N-(3-Fluorobenzyl)-3-(4-(4-methylpiperazin-1-yl)benzamido)-1H-indazole-5-carboxamide]	0.0072 µM	0.05 µM
CN1CCN(c2ccc(C(=O)Nc3n[nH]c4ccc(C(=O)NCc5ccccc5F)cc34)cc2)CC1 [Example 196, N-(2-Fluorobenzyl)-3-(4-(4-methylpiperazin-1-yl)benzamido)-1H-indazole-5-carboxamide]	0.007 µM	0.032 µM
CN1CCN(c2ccc(C(=O)Nc3n[nH]c4ccc(C(=O)NC(c5ccccc5)C5CC5)cc34)cc2)CC1 (centres unmarked) [Example 197, N-(Cyclopropyl(phenyl)methyl)-3-(4-(4-methylpiperazin-1-yl)benzamido)-1H-indazole-5-carboxamide]	0.027 µM	0.042 µM
CC(C)(C)OC(=O)N1CC=C(c2ccc(C(=O)Nc3n[nH]c4ccc(C(=O)NCc5cccs5)cc34)cc2)CC1 [Example 198, tert-Butyl 4-(4-((5-((thiophen-2-ylmethyl)carbamoyl)-1H-indazol-3-yl)carbamoyl)phenyl)-3,6-tetrahydropyridine-1(2H)-carboxylate]	0.15 µM	1.28 µM
O=C(NCc1cccs1)c1ccc2[nH]nc(NC(=O)c3ccc(C4=CCNCC4)cc3)c2c1 [Example 199, 3-(4-(1,2,3,6-Tetrahydropyridin-4-yl)benzamido)-N-(thiophen-2-ylmethyl)-1H-indazole-5-carboxamide]	0.0097 µM	0.14 µM

Now those with a lower IC50 [1], led by results:

IC50 [1]	IC50 [2]	SMILES
0.003 µM	0.038 µM	O=C(NCc1cccs1)c1ccc2[nH]nc(NC(=O)c3ccc(OCCN4CCOCC4)cc3)c2c1 [Example 201, 3-(4-(2-Morpholinoethoxy)benzamido)-N-(thiophen-2-ylmethyl)-1H-indazole-5-carboxamide]
0.0029 µM	0.015 µM	CCC(NC(=O)c1ccc2[nH]nc(NC(=O)c3ccc(N4CCN(C(C)=O)CC4)cc3)c2c1)c1ccsc1 (centres unmarked) [Example 209, 3-(4-(4-Acetylpiperazin-1-yl)benzamido)-N-(1-(thiophen-3-yl)propyl)-1H-indazole-5-carboxamide]
0.0013 µM	0.014 µM	CC[C@@H](NC(=O)c1ccc2[nH]nc(NC(=O)c3ccc(N4CCN(C)CC4)cc3)c2c1)c1ccccc1 [Example 191, (R)-3-(4-(4-Methylpiperazin-1-yl)benzamido)-N-(1-phenylpropyl)-1H-indazole-5-carboxamide]
0.0013 µM	0.079 µM	CC(=O)Nc1ccc(C(=O)Nc2n[nH]c3ccc(C(=O)NCc4cccs4)cc23)cc1 [Example 211, 3-(4-Acetamidobenzamido)-N-(thiophen-2-ylmethyl)-1H-indazole-5-carboxamide]
